Results: patent publication US9556115B2, “Sulfonamides for the prevention of diabetes” (Dompé S.P.A., priority 2009, dated 2017)

System: MLD-STZ-induced diabetes in male C57BL/6J mice
Test: Diabetes induction after multiple low dose (MLD)-streptozotocin (STZ) injections
Format: in vivo, mouse
Settings: for glycemic levels after development of diabetes vs control mice / time to develop the disease compared to controls: mice injected with STZ, summary statement
Protocol: Injection of susceptible mice strains with multiple low doses of (STZ) provokes a condition with clinical and histoimmunological features similar to human Type 1 diabetes mellitus (DM). It has been established that five daily doses of 40 mg/kg/day of STZ are required for delayed onset, sustained and progressive hyperglycemia and insulitis in male C57BL/6 mice.
This model was previously used to study the role of proinflammatory cytokines in the development of Type 1 diabetes. 12 male C57BL/6J mice received MLD-STZ treatment. STZ was injected i.p. at a dose of 40 mg/kg/day, for 5 consecutive days. Glucose concentrations in venous blood was measured every day starting from the first day of treatment. Mice with glycemia over 250 mg/dl on three consecutive tests were considered diabetic, with the first detection of hyperglycemia taken as the date of diabetes onset. The mice were monitored for up to 60 days post first STZ injection. Reparixin was administered by s.c. continuous infusion starting from day −1 up to day 7 after first STZ injection at a dose of 8 mg/h/kg.
Male C57BL/6J mice were injected i.p. with (ML)-streptozotocin (STZ) at a dose of 40 mg/kg/day, for 5 consecutive days. Glucose concentrations in venous blood were measured every day starting from the first day of treatment (day 0). Mice with glycaemia over 250 mg/dl on three consecutive tests were considered diabetic, with the first detection of hyperglycemia taken as the date of diabetes onset. The mice were followed for up to 60 days post first STZ injection. Meraxin was administered per os at a dose of 15 mg/kg for 7 or 14 days, starting from day −1 of first STZ injection.
In a second set of experiments, the treatment with Meraxin for 14 days was started +5 (n=4) days after the first STZ injection to mimic the clinical setting of diabetes onset.

Compound | glycaemia levels after diabetes development vs vehicle-treated group (Reparixin s.c. continuous infusion 8 mg/h/kg day -1 to day 7, whole two-month observation period) | median diabetes free time (Reparixin s.c. continuous infusion 8 mg/h/kg from day -1 up to day 7 after first STZ injection, n=8, p=0.026 vs ctrl) [days] | glycemic levels after development of diabetes vs control mice | time to develop the disease compared to controls | diabetes onset (Meraxin for 14 days started day +5 after first STZ injection (up to day 19), n=4) | glycaemic levels vs vehicle-treated mice (Meraxin for 14 days started day +5 after first STZ injection, whole 2-month observation period) | median diabetes-free time (Meraxin per os 15 mg/kg for 7 days starting from day -1, n=8, p=0.67 vs ctrl) | median diabetes-free time (Meraxin per os 15 mg/kg for 14 days starting from day -1, n=8, p=0.016 vs ctrl)
CC(C)Cc1ccc([C@@H](C)C(=O)NS(C)(=O)=O)cc1 [Reparixin, R(-)-2-[(4-isobutylphenyl)propionyl]-methanesulfonamide] | constantly and significantly lower | 27 ± 15 | significantly lower | more than double the time |  |  |  | 
C[C@@H](C(=O)NS(C)(=O)=O)c1ccc(OS(=O)(=O)C(F)(F)F)cc1 [Meraxin, R(-)-2-[(4′-trifluoromethanesulfonyloxy)phenyl]propionyl-methanesulfonamide] |  |  | significantly lower | more than double the time | clearly prevented diabetes onset | constantly and significantly lower | 13+2.8 days | 29+16
